According to patent US10259856B2, “Protease stabilized acylated insulin analogues” (priority 2008, dated 2019):

Key:
[1] = molecular target: T1, human insulin receptor (IR-A) (Homo sapiens, UniProt P06213); assay: Insulin receptor affinity, SPA antibody capture assay (0% HSA); assay type: binding; conditions: affinity relative to human insulin
Method: (§1) The affinity of the acylated insulin analogues of this invention for the human insulin receptor is determined by a SPA assay (Scintillation Proximity Assay) microtiterplate antibody capture assay. […] Reagent mix for a single Packard Optiplate (Packard No. 6005190) is composed of 2.4 μl of a 1:5000 diluted purified recombinant human insulin receptor (either with or without exon 11), an amount of a stock solution of A14Tyr[^125I]-human insulin corresponding to 5000 cpm per 100 μl of reagent mix, 12 μl of a 1:1000 dilution of F12 antibody, 3 ml of SPA-beads and binding buffer to a total of 12 ml. A total of 100 μl reagent mix is then added to each well in the Packard Optiplate and a dilution series of the insulin derivative is made in the Optiplate from appropriate samples. The samples are then incubated for 16 hours while gently shaken. The phases are the then separated by centrifugation for 1 min and the plates counted in a Topcounter. The binding data were fitted using the nonlinear regression algorithm in the GraphPad Prism 2.01 (GraphPad Software, San Diego, Calif.) and affinities are expressed relative (in percentage (%)) to the affinity of human insulin.

[2] = Hydrophobicity by reverse phase HPLC under isocratic conditions; assay type: physicochemical; conditions: isocratic RP-HPLC, pH 7.3; human insulin as reference (k'rel = 1)
Method: The void time of the HPLC system, t0, is determined by injecting 5 μl of 0.1 mM NaNO3. Running conditions:
Column: Lichrosorb RP-C18, 5 μm, 4×250 mm
Buffer A: 0.1 M natrium phosphate pH 7.3, 10 vol % CH3CN

[3] = molecular target: T1, human insulin receptor (IR-A); assay: Insulin receptor affinity, SPA assay with binding buffer containing 4.5% HSA; conditions: 4.5% HSA in binding buffer; affinity relative to human insulin
Method: as §1

T1 sequence (P06213 28-746 isoform P06213-2 limits assumed): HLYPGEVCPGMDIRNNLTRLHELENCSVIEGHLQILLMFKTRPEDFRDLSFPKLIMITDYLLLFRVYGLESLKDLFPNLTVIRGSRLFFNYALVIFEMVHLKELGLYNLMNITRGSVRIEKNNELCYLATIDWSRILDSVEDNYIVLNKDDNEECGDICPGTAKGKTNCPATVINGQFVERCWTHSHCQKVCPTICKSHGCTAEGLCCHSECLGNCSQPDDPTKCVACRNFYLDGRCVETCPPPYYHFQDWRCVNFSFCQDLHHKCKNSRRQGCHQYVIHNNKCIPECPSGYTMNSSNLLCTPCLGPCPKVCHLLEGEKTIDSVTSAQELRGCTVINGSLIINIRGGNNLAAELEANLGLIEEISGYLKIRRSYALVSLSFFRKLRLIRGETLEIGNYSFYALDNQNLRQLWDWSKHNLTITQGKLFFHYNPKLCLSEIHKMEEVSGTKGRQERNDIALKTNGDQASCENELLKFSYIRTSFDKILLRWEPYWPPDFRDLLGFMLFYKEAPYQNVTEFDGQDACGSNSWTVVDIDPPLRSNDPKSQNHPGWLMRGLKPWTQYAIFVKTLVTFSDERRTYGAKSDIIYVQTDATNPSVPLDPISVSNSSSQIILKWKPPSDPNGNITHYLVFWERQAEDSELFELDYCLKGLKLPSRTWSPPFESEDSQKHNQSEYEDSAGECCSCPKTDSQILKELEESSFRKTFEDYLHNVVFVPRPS
T1 sequence (P06213 763-1382 partner limits assumed): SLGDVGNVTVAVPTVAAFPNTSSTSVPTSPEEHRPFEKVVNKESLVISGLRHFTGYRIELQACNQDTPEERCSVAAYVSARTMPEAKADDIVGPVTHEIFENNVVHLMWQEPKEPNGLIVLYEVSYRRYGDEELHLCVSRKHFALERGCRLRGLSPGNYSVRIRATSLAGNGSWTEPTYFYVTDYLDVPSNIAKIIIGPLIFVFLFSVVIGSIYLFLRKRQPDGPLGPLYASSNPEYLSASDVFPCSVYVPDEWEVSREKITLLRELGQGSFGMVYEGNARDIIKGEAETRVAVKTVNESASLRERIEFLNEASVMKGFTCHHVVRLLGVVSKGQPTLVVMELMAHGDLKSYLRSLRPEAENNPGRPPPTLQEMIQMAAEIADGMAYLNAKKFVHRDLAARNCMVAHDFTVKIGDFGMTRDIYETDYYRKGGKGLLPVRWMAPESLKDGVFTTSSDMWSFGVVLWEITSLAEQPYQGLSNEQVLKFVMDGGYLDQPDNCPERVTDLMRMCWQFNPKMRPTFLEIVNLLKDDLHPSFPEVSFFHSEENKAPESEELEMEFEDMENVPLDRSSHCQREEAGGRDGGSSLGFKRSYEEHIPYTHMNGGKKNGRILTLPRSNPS

| Substance | Relative IR-A affinity (@ 0% HSA) (%) [1] | Relative hydrophobicity, k'relderiv [2] | Relative IR-A affinity (@ 4.5% HSA) (%) [3] |
| --- | --- | --- | --- |
| A14E, B25H, B29K(N^ε3-Carboxy-5-octadecanedioylaminobenzoyl), desB30 Human Insulin [Example 4] | 3.4% | .48 |  |
| A14E, B25H, B29K(N^ε4-([4-({19-Carboxynonadecanoylamino}methyl)trans-cyclohexane-carbonyl-]-γGlu-γGlu), desB30 Human Insulin [Example 12] | 1.7% | .94 |  |
| A14E, B25H, B29K(N^ε4-([4-({19-Carboxynonadecanoylamino}methyl)trans-cyclohexanecarbonyl]-γGlu), desB30 Human Insulin [Example 7] | 2.1% | 2.78 |  |
| A14E, B25H, B29K(N^ε (N-Octadecandioyl-N-carboxymethyl)-beta-alanyl), desB30 Human Insulin [Example 6] | 2.6% |  | .04% |
| A14E, B25H, B29K(N^ε(5-Eicosanedioylaminoisophthalic acid)), desB30 Human Insulin [Example 47] | 1.2% |  | 0.10% |
| A14E, B25H, B29K(N^εEicosanedioyl-Aoc), desB30 Human Insulin [Example 53] | 2.3% |  | 0.03% |
| A14E, B25H, B29K(N^εMyristyl), desB30 Human Insulin [Example 10] | 9.5% | 14.60 |  |
| A14E, B25H, B29K(N^εOctadecanedioyl-γGlu-Abu-Abu-Abu-Abu), desB30 Human Insulin [Example 41] | 1.6% |  | .31% |
| A14E, B25H, B29K(N^εeicosanedioyl-γGlu-(3-(2-{2-[2-(2-aminoethoxy)ethoxy]ethoxy}ethoxy)propionyl-γGlu), desB30 Human Insulin [Example 17] | .9% | .57 |  |
| A14E, B25H, B29K(N^εoctadecandioyl-γGlu-PEG7), desB30 Human Insulin [Example 15] | 1.9% | .43 |  |
| A14E, B25H, B29K(N^ε—N-octadecandioyl-N-(2-carboxyethyl)glycyl), desB30 Human Insulin [Example 5] | 2.5% | .23 |  |
